# According to ChEMBL document CHEMBL3352299, “Antiproliferative 4-(1,2,4-oxadiazol-5-yl)piperidine-1-carboxamides, a new tubulin inhibitor chemotype” (Bioorg Med Chem Lett, 2014):
# Tests used:
# Type in all cases: functional
# [1] = system: K562; test: Induction of mitotic arrest in human K562 cells assessed as mitotic indices at 100 uM by light microscopy
# [2] = system: CAKI-1; test: Antiproliferative activity against human CAKI-1 cells after 3 days by fluorescence assay; details: CAKI-1, 72 h
# [3] = Antiproliferative activity against human RXF393 cells after 3 days by fluorescence assay; details: RXF 393, 72 h
# [4] = system: SN12C; test: Antiproliferative activity against human SN12C cells after 3 days by fluorescence assay; details: 72 h
# [5] = system: TK-10; test: Antiproliferative activity against human TK10 cells after 3 days by fluorescence assay; details: TK-10, 72 h
# [6] = Antiproliferative activity against human UO31 cells after 3 days by fluorescence assay; details: UO-31, 72 h
# [7] = Antiproliferative activity against human PC3 cells after 3 days by fluorescence assay; details: PC-3, 72 h
# [8] = system: DU-145; test: Antiproliferative activity against human DU145 cells after 3 days by fluorescence assay; details: DU-145, 72 h
# [9] = system: MCF7; test: Antiproliferative activity against human MCF7 cells after 3 days by fluorescence assay; details: MCF7, 72 h
# [10] = system: MDA-MB-231; test: Antiproliferative activity against human MDA-MB-231 cells after 3 days by fluorescence assay; details: MDA-MB-231, 72 h
# [11] = Antiproliferative activity against human Hs 578T cells after 3 days by fluorescence assay; details: 72 h
# [12] = Antiproliferative activity against human BT549 cells after 3 days by fluorescence assay; details: BT-549, 72 h
# [13] = system: T47D; test: Antiproliferative activity against human T47D cells after 3 days by fluorescence assay; details: 72 h
# [14] = system: MDA-MB-468; test: Antiproliferative activity against human MDA-MB-468 cells after 3 days by fluorescence assay; details: MDA-MB-468, 72 h
# [15] = system: CCRF-CEM; test: Antiproliferative activity against human CCRF-CEM cells after 3 days by fluorescence assay; details: 72 h
# [16] = system: HL-60(TB); test: Antiproliferative activity against human HL-60(TB) cells after 3 days by fluorescence assay; details: HL-60, 72 h
# [17] = system: K562; test: Antiproliferative activity against human K562 cells after 3 days by fluorescence assay; details: K562, 72 h
# [18] = Antiproliferative activity against human MOLT4 cells after 3 days by fluorescence assay; details: MOLT-4, 72 h
# [19] = Antiproliferative activity against human RPMI8226 cells after 3 days by fluorescence assay; details: RPMI-8226, 72 h
# [20] = system: SR; test: Antiproliferative activity against human SR cells after 3 days by fluorescence assay; details: 72 h
# [21] = system: A549; test: Antiproliferative activity against human A549 cells after 3 days by fluorescence assay; details: A549, 72 h
# [22] = Antiproliferative activity against human EKVX cells after 3 days by fluorescence assay; details: 72 h
# [23] = system: HOP-62; test: Antiproliferative activity against human HOP62 cells after 3 days by fluorescence assay; details: HOP-62, 72 h
# [24] = Antiproliferative activity against human HOP92 cells after 3 days by fluorescence assay; details: HOP-92, 72 h
# [25] = system: NCI-H226; test: Antiproliferative activity against human NCI-H226 cells after 3 days by fluorescence assay; details: NCI-H226, 72 h
# [26] = system: NCI-H23; test: Antiproliferative activity against human NCI-H23 cells after 3 days by fluorescence assay; details: NCI-H23, 72 h
# [27] = system: NCI-H322M; test: Antiproliferative activity against human NCI-H322M cells after 3 days by fluorescence assay; details: 72 h
# [28] = system: NCI-H460; test: Antiproliferative activity against human NCI-H460 cells after 3 days by fluorescence assay; details: NCI-H460, 72 h
# [29] = system: NCI-H522; test: Antiproliferative activity against human NCI-H522 cells after 3 days by fluorescence assay; details: NCI-H522, 72 h
# [30] = Antiproliferative activity against human COLO205 cells after 3 days by fluorescence assay; details: COLO 205, 72 h
# [31] = Antiproliferative activity against human HCC2998 cells after 3 days by fluorescence assay; details: HCC 2998, 72 h
# [32] = Antiproliferative activity against human HCT116 cells after 3 days by fluorescence assay; details: HCT-116, 72 h
# [33] = Antiproliferative activity against human HCT15 cells after 3 days by fluorescence assay; details: HCT-15, 72 h
# [34] = system: HT-29; test: Antiproliferative activity against human HT-29 cells after 3 days by fluorescence assay; details: HT-29, 72 h
# [35] = system: KM12; test: Antiproliferative activity against human KM12 cells after 3 days by fluorescence assay; details: KM12, 72 h
# [36] = system: SW-620; test: Antiproliferative activity against human SW620 cells after 3 days by fluorescence assay; details: SW-620, 72 h
# [37] = system: SF-268; test: Antiproliferative activity against human SF268 cells after 3 days by fluorescence assay; details: SF-268, 72 h
# [38] = Antiproliferative activity against human SF295 cells after 3 days by fluorescence assay; details: SF-295, 72 h
# [39] = Antiproliferative activity against human SF539 cells after 3 days by fluorescence assay; details: SF-539, 72 h
# [40] = system: SNB-19; test: Antiproliferative activity against human SNB19 cells after 3 days by fluorescence assay; details: SNB-19, 72 h
# [41] = system: SNB-75; test: Antiproliferative activity against human SNB75 cells after 3 days by fluorescence assay; details: SNB-75, 72 h
# [42] = system: U-251; test: Antiproliferative activity against human U251 cells after 3 days by fluorescence assay; details: U-251, 72 h
# [43] = Antiproliferative activity against human LOXIMVI cells after 3 days by fluorescence assay; details: LOX IMVI, 72 h
# [44] = system: Malme-3M; test: Antiproliferative activity against human MALME-3M cells after 3 days by fluorescence assay; details: 72 h
# [45] = system: M14; test: Antiproliferative activity against human M14 cells after 3 days by fluorescence assay; details: M14, 72 h
# [46] = system: MDA-MB-435; test: Antiproliferative activity against human MDA-MB-435 cells after 3 days by fluorescence assay; details: MDA-MB-435, 72 h
# [47] = system: SK-MEL-2; test: Antiproliferative activity against human SK-MEL-2 cells after 3 days by fluorescence assay; details: SK-MEL-2, 72 h
# [48] = system: SK-MEL-28; test: Antiproliferative activity against human SK-MEL-28 cells after 3 days by fluorescence assay; details: SK-MEL-28, 72 h
# [49] = system: SK-MEL-5; test: Antiproliferative activity against human SK-MEL-5 cells after 3 days by fluorescence assay; details: SK-MEL-5, 72 h
# [50] = Antiproliferative activity against human UACC257 cells after 3 days by fluorescence assay; details: UACC-257, 72 h
# [51] = Antiproliferative activity against human UACC62 cells after 3 days by fluorescence assay; details: UACC-62, 72 h
# [52] = system: IGROV-1; test: Antiproliferative activity against human IGROV1 cells after 3 days by fluorescence assay; details: IGROV-1, 72 h
# [53] = Antiproliferative activity against human OVCAR3 cells after 3 days by fluorescence assay; details: OVCAR-3, 72 h
# [54] = Antiproliferative activity against human OVCAR4 cells after 3 days by fluorescence assay; details: OVCAR-4, 72 h
# [55] = Antiproliferative activity against human OVCAR5 cells after 3 days by fluorescence assay; details: OVCAR-5, 72 h
# [56] = Antiproliferative activity against human OVCAR8 cells after 3 days by fluorescence assay; details: OVCAR-8, 72 h
# [57] = Antiproliferative activity against human NCI-ADR-RES cells after 3 days by fluorescence assay; details: 72 h
# [58] = Antiproliferative activity against human SKOV3 cells after 3 days by fluorescence assay; details: SK-OV-3, 72 h
# [59] = system: 786-0; test: Antiproliferative activity against human 786-0 cells after 3 days by fluorescence assay; details: 786-0, 72 h
# [60] = system: A498; test: Antiproliferative activity against human A498 cells after 3 days by fluorescence assay; details: A498, 72 h
# [61] = system: ACHN; test: Antiproliferative activity against human ACHN cells after 3 days by fluorescence assay; details: 72 h
compound,measurement,setting,value
COc1ccc(/C=C\c2cc(OC)c(OC)c(OC)c2)cc1O [COMBRETASTATIN A4],Activity,[1],82%
COc1cccc(-c2noc(Nc3ccc(C)cc3)n2)c1OC,GI50,[2],3160 nM
same,GI50,[3],1320 nM
same,GI50,[4],6030 nM
same,GI50,[5],4470 nM
same,GI50,[6],5370 nM
same,GI50,[7],3800 nM
same,GI50,[8],3160 nM
same,GI50,[9],1580 nM
same,GI50,[10],10700 nM
same,GI50,[11],3470 nM
same,GI50,[12],6170 nM
same,GI50,[13],3630 nM
same,GI50,[14],1100 nM
same,GI50,[15],2340 nM
same,GI50,[16],676 nM
same,GI50,[17],245 nM
same,GI50,[18],4680 nM
same,GI50,[19],2950 nM
same,GI50,[20],234 nM
same,GI50,[21],3160 nM
same,GI50,[22],5500 nM
same,GI50,[23],2290 nM
same,GI50,[24],3890 nM
same,GI50,[25],7760 nM
same,GI50,[26],1740 nM
same,GI50,[27],5130 nM
same,GI50,[28],2090 nM
same,GI50,[29],891 nM
same,GI50,[30],2570 nM
same,GI50,[31],3630 nM
same,GI50,[32],1150 nM
same,GI50,[33],1780 nM
same,GI50,[34],525 nM
same,GI50,[35],1000 nM
same,GI50,[36],603 nM
same,GI50,[37],4790 nM
same,GI50,[38],1100 nM
same,GI50,[39],1200 nM
same,GI50,[40],3800 nM
same,GI50,[41],1910 nM
same,GI50,[42],3720 nM
same,GI50,[43],3090 nM
same,GI50,[44],1740 nM
same,GI50,[45],1350 nM
same,GI50,[46],219 nM
same,GI50,[47],2290 nM
same,GI50,[48],2340 nM
same,GI50,[49],3090 nM
same,GI50,[50],2820 nM
same,GI50,[51],2880 nM
same,GI50,[52],4790 nM
same,GI50,[53],1150 nM
same,GI50,[54],6310 nM
same,GI50,[55],11200 nM
same,GI50,[56],3980 nM
same,GI50,[57],562 nM
same,GI50,[58],2880 nM
same,GI50,[59],4790 nM
same,GI50,[60],2400 nM
same,GI50,[61],7080 nM
